ChEMBL document CHEMBL1201862, “PubChem BioAssay data set” (2004)
The source made the active and inactive calls.

Key:
[1] = biological target: T1, Replicative DNA helicase DnaB (Mycobacterium tuberculosis, UniProt P9WMR3); assay: DnaB intein splicing inhibitors, dose response, biochemical, cell-free fluorescence (AID 449749); type: functional
T1 sequence (P9WMR3 whole entry): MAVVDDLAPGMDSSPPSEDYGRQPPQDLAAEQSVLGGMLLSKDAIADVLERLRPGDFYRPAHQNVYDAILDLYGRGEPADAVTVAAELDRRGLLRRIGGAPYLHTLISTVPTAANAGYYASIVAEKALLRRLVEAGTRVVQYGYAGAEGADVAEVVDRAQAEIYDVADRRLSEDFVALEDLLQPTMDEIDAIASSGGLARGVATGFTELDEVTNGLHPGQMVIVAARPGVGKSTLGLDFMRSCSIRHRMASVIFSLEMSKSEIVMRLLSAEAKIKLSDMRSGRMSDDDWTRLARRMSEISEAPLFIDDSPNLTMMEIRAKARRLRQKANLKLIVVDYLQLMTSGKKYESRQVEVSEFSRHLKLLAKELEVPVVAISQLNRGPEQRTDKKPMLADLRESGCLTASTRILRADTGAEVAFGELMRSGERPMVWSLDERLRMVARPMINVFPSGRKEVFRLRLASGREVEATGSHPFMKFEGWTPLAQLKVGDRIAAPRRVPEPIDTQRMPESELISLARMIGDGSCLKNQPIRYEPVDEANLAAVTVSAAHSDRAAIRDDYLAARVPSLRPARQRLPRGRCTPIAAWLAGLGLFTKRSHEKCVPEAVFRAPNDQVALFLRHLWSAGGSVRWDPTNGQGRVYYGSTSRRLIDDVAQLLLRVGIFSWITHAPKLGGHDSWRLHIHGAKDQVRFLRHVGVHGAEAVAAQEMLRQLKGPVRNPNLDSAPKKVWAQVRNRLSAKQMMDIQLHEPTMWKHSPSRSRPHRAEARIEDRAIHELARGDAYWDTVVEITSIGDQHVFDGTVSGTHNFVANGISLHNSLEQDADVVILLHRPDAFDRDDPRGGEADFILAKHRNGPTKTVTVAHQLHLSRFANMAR

Protein RecA = biological target: T2, Protein RecA (Mycobacterium tuberculosis, UniProt P9WHJ3); assay: Fluorescence Cell-Free Homogeneous Dose Retest to Identify Inhibitors of RecA-Intein Splicing Activity. [Related pubchem assays (depositor defined):AID2097, AID2223, AID489010, AID492950]; type: functional
T2 sequence (P9WHJ3 whole entry): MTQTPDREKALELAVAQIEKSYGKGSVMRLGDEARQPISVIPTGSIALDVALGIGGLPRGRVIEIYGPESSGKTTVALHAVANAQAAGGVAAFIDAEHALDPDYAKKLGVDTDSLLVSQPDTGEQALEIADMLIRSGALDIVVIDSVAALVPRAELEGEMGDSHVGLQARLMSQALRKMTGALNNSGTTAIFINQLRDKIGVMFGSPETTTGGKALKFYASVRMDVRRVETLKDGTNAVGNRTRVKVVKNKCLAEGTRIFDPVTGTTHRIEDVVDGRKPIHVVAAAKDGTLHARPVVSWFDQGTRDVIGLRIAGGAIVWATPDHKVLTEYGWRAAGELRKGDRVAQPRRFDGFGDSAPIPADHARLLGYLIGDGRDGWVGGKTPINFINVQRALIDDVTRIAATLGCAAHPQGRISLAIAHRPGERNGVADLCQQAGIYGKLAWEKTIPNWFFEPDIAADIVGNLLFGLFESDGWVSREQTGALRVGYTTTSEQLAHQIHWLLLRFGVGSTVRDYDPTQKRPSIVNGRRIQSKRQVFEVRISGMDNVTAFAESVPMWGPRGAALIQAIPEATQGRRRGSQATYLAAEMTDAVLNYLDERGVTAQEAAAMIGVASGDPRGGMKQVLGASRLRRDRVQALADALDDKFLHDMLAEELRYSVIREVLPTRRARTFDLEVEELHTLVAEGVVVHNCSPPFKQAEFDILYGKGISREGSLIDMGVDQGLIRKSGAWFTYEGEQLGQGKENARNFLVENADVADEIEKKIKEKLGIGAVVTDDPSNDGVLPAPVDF

Fatty acid synthase [2] = biological target: T3, Fatty acid synthase (Homo sapiens, UniProt P49327); assay: FAS thioesterase domain inhibitors, dose response, biochemical, endpoint fluorescence intensity, uHTS hits (AID 624327); type: functional;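 also: fluorescence from hydrolysis of an O-methyl fluorescein acyl ester substrate by the enzyme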
Fatty acid synthase [3] = biological target: T3, Fatty acid synthase; assay: FAS thioesterase domain inhibitors, dose response, biochemical, kinetic fluorescence intensity (AID 624326); type: functional;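 also: rate of fluorescence rise from hydrolysis of a fluorogenic O-methyl fluorescein ester substrate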
[4] = HEp-2 cell cytotoxicity, dose response, cytotoxicity control for RSV inhibitor project, HTS (AID 2410); type: functional; settings: human respiratory syncytial virus
[5] = NIH-3T3 fibroblast cytotoxicity, dose response, cytotoxicity control, cell-based, fluorescence, Alamar Blue, secondary assay (AID 2327); type: functional;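 also: NIH-3T3 mouse fibroblasts cultured with fluconazole at 8 µg/mL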
[6] = biological target: T4, Heat shock factor protein 1 (Mus musculus, UniProt P38532); assay: HSF1 potentiators in luciferase reporter cells, confirmation, cell-based, NIH3T3, luminescence, dose retest (AID 435004); type: functional;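 also: stress induced by proteasome inhibitor MG132 added 30 min after compound; luciferase reporter driven by HSF1 response element in NIH3T3 cells; actives raise luminescence as potentiators of the MG132 stress response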
T4 sequence (P38532 whole entry): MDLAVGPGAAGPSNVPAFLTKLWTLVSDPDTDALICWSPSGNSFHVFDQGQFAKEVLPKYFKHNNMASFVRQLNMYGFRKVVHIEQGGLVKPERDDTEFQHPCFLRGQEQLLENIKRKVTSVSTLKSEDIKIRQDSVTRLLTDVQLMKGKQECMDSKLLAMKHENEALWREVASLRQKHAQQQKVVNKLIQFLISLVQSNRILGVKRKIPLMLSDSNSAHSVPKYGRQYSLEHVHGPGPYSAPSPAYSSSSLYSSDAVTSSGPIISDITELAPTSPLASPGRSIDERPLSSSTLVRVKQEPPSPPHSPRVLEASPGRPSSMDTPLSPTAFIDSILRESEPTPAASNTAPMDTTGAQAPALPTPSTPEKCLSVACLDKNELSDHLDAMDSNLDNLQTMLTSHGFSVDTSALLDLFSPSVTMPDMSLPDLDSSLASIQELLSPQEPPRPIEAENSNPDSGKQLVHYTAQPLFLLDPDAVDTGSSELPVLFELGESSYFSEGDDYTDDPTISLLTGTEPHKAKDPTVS

[7] = biological target: FAD-linked sulfhydryl oxidase ALR (Homo sapiens, UniProt P55789); assay: inhibitors of human ALR sulfhydryl oxidase, dose response, biochemical, H2O2 detection, luminescence, cherry-pick (AID 493248)
[8] = Luminescence Cell-Based Dose Response HTS to Identify Activators of Luciferase Translation or Activity in H4 […] Cells. [Related pubchem assays: 1829 (Project Summary), 1814 (Primary HTS)]; type: functional
Paired box protein Pax-8 = Paired box protein Pax-8 (Homo sapiens, UniProt Q06710); assay: inhibitors of PAX8-driven TPO luciferase reporter, dose response, RMG-I cells, cherry-pick (AID 687027); type: functional, cell-based;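 also: luciferase reporter driven by Pax8 target thyroperoxidase promoter measured by SteadyGlo luminescence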
H4 = assay: Luminescence Cell-Based Dose Response HTS to Identify Activators of 5'UTR Stem-Loop Driven Prion Protein mRNA Translation in H4 Neuroglioblastoma Cells. [Related pubchem assays: 1829 (Project Summary), 1814 (Primary HTS)]; type: functional; settings: Homo sapiens
[9] = P. falciparum Dd2 growth inhibitors, dose response, SYBR Green, cherry-picked samples (AID 1159567); type: functional, cell-based

FAD-linked sulfhydryl oxidase ALR, sequence (P55789 whole entry): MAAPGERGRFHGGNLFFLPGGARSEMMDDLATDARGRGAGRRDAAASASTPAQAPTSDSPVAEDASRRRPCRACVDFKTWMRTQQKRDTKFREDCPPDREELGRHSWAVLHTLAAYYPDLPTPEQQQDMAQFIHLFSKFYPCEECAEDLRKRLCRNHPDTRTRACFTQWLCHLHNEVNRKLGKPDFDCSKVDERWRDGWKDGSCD
T3 sequence (P49327 whole entry, the tested form may be a part): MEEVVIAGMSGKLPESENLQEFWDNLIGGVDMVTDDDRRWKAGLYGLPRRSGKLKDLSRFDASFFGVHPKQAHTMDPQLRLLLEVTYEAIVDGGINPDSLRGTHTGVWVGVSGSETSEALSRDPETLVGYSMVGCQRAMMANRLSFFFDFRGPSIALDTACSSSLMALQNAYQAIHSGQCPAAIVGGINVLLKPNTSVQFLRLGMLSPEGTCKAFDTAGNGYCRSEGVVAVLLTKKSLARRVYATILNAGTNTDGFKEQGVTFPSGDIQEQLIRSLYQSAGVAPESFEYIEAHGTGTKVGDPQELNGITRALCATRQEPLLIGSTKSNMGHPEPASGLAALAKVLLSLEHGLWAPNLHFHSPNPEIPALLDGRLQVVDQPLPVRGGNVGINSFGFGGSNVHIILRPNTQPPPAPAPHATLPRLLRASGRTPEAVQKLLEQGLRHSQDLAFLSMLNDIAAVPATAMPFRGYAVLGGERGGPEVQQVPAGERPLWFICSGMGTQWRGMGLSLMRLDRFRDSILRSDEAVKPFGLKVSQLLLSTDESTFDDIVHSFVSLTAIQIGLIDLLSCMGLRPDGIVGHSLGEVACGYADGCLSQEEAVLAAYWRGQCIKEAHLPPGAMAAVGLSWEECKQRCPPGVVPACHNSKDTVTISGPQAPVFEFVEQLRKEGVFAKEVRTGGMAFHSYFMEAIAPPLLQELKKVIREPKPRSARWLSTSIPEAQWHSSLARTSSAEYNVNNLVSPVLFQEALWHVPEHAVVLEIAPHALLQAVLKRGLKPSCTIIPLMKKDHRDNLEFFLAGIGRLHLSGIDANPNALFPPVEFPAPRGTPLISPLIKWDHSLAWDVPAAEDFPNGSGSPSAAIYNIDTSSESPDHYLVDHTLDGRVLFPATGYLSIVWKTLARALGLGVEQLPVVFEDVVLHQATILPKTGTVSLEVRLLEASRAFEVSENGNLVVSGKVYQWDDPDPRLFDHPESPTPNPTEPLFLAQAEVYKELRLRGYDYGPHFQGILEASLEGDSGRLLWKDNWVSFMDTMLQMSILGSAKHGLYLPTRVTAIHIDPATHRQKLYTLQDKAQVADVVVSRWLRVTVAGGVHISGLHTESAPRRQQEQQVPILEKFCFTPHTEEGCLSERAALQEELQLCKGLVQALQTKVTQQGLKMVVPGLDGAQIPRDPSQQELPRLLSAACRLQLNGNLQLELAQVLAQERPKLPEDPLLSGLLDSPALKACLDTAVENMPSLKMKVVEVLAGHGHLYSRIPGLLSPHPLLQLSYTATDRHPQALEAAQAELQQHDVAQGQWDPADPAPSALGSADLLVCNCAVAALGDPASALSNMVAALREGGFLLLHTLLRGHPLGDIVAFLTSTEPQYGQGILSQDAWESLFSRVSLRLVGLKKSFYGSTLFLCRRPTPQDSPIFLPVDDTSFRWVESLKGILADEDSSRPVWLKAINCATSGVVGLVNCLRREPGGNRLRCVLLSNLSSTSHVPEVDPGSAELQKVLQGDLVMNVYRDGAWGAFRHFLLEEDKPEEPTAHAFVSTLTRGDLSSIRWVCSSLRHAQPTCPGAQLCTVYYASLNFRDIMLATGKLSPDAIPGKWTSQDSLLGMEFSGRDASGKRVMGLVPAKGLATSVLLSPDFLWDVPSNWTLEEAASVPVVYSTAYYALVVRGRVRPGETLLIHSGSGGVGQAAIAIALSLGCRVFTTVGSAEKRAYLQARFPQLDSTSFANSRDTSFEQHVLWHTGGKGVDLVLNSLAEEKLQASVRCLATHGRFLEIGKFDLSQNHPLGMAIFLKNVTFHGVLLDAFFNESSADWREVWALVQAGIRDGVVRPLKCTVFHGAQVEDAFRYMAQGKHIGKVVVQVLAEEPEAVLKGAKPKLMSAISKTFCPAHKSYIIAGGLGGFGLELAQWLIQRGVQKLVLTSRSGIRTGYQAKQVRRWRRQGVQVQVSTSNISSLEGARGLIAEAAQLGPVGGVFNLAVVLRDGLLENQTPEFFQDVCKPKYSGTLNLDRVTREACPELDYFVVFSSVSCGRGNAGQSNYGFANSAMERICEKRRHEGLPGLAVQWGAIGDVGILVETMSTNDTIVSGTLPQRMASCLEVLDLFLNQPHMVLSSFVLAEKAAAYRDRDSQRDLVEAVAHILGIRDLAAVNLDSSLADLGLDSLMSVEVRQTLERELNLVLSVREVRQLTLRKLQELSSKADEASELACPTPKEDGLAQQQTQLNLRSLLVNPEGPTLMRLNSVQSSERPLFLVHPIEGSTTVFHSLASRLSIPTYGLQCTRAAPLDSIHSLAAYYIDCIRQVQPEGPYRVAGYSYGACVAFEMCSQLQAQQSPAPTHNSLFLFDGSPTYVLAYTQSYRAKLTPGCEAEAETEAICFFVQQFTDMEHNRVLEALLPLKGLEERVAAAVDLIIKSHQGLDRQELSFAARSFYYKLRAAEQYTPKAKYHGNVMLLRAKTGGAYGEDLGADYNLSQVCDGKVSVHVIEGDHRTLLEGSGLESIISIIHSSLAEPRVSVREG
Paired box protein Pax-8, sequence (Q06710 whole entry): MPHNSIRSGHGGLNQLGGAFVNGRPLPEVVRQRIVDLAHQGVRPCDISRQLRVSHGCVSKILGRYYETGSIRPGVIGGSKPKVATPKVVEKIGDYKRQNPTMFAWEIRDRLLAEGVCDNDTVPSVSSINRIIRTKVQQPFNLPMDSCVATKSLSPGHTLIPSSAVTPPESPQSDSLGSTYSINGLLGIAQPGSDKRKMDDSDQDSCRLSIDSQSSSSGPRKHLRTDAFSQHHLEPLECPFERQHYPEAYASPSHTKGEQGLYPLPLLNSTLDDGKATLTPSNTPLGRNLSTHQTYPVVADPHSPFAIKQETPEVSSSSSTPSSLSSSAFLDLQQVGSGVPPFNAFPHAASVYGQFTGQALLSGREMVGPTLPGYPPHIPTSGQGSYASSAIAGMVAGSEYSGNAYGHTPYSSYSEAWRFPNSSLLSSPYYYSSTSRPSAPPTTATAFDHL

## Cc1onc(-c2ccccc2)c1C(=O)n1nnc2ccccc21
[1]
  AC50: 7.85 µM (active)
Protein RecA
  EC50: 13 µM (active)
Fatty acid synthase [2]
  IC50: 12.9 µM (active)
Fatty acid synthase [3]
  IC50: 10.3 µM (active)

## O=[N+]([O-])c1ccc(CSc2ccc(S(=O)(=O)N3CCCC3)cn2)cc1
Fatty acid synthase [2]
  IC50: 12.1 µM (active)
Fatty acid synthase [3]
  IC50: 10.6 µM (active)

## Cc1c(Br)c([N+](=O)[O-])nn1CC(=O)N1CCc2ccccc2C1
Fatty acid synthase [2]
  IC50: 4.38 µM (active)
Fatty acid synthase [3]
  IC50: 6.67 µM (active)

## COc1ccc(N2CCN(C(=O)c3ccc(-n4nc(C)cc4C)cc3)CC2)cc1
[4]
  CC50: 42 µM (active)

## O=C(Cc1ccc(Cl)cc1)Nc1ccc(Br)cc1
[5]
  EC50: > 150 µM (inconclusive)

## CC(OC(=O)c1cccc([N+](=O)[O-])c1)C(=O)N1CCc2ccccc21 (stereo not drawn)
Fatty acid synthase [2]
  IC50: 3.92 µM (active)
Fatty acid synthase [3]
  IC50: 3.98 µM (active)

## CC[C@@H]1[C@H]2CCCC(=O)N3CC[C@@H](C[C@@H]1Nc1ccccc1)[C@@H]23
[6]
  EC50: > 260 µM (inactive)
[7]
  AC50: 0.008 µM (active)

## O=C(COC(=O)c1cc([N+](=O)[O-])ccc1N1CCOCC1)c1ccccc1
Fatty acid synthase [2]
  IC50: 9.63 µM (active)
Fatty acid synthase [3]
  IC50: 6.51 µM (active)

## CCCC(C)C1c2c(c(C)c(C)oc2=O)Oc2c(C)c(C)oc(=O)c21 (stereo not drawn)
Fatty acid synthase [2]
  IC50: 9.33 µM (active)
Fatty acid synthase [3]
  IC50: 8.38 µM (active)

## CCS(=O)(=O)N1CCN=C1SCc1cccnc1
[7]
  AC50: 2.06 µM (active)

## O[C@H]1C[C@H](c2ccccc2)N(CC2CCCCC2)C[C@@H]1n1cc(C2CC2)nn1
Fatty acid synthase [2]
  IC50: 8.28 µM (active)
Fatty acid synthase [3]
  IC50: 6.52 µM (active)

## COc1ccc(C2=NC(c3ccccc3)CO2)cc1 (stereo not drawn)
[8]
  EC50: 39.5 µM (active)

## CCCN(C)C[C@H]1OCCCC[C@@H](C)Oc2ccc(NC(=O)Nc3ccc(C(F)(F)F)cc3)cc2C(=O)N([C@H](C)CO)C[C@H]1C
Paired box protein Pax-8
  AC50: 23.1 µM (active)

## CN(C)c1ccc(/C=N/NC(=O)CNC(=O)c2ccncc2)cc1
[7]
  AC50: 3.61 µM (active)

## CCOC(=O)N/N=C1\CCc2ccccc21
[8]
  EC50: 7.73 µM (active)
H4
  EC50: 11.7 µM (active)

## CCS(=O)(=O)N1CCC2(CC1)CN(C(=O)Nc1cccc(F)c1)[C@H](CO)c1c2c2ccc(OC)cc2n1C
[9]
  AC50: 4.52 µM (active)

## CCCc1cn([C@@H]2C[C@@H]3O[C@H](CO)CC[C@@H]3O[C@@H]2CCc2ccc(-c3cccc(OC)c3)cc2)nn1
[9]
  AC50: 2.81 µM (active)
